Tests used:
Format in all cases: cell-based, human
[1] = tested on: MG-63 cells; test: Alkaline phosphatase (ALP) activity test in co-cultured MG-63 cells
Protocol: 0.0001 g, 0.0005 g, 0.005 g, and 0.05 g of VK2 was fine weighed and sterilized by UV light in a sterile hood overnight, then added into 50 ml centrifuge tubes. 50 ml of H-DMEM containing 10% FBS was then added to prepare cell culture medium with different VK2 concentrations: 0 mg/mL, 0.002 mg/mL, 0.01 mg/mL, 0.1 mg/mL, and 1 mg/mL.
H-DMEM containing 10% FBS was used to adjust the concentration of MG-63 cell solution to 1×10^4 cells/ml. 1 ml/well of cell solution was seeded to a 24-well plate and incubated in an incubator for 1 day to make cells adhere. Then, the culture medium was removed, 1 ml/well of cell culture medium with different VK2 concentration were added respectively and incubated for 1, 3, and 7 days. Cell viability analysis (MTT) and alkaline phosphatase activity assay (ALP) were conducted. Cell morphology was observed by an inverted microscope and recorded in photographs. […]
The measurement of ALP is described below. After being cultured for 1 day, the cell culture medium was removed from the 24-well cell culture plate. Then, the 24-well cell culture plate was washed twice by PBS. After the PBS was removed, 200 μl/well of ALP extraction reagent pNPP65 (p-Nitrophenylphosphate) was added to the 24-well culture plate and reacted in an incubator (37° C., 5% CO2) in the dark for 30 minutes. Then, 50 μl of 1N sodium hydroxide was added to stop the reaction. 250 μl/well of supernatant was suctioned to a 96-well plate to detect the OD value at 405 nm by an ELISA reader. Activity of alkaline phosphatase (ALP) can be calculated by the formula below: […]
In this formula, A is the absorbance of a sample at 405 nm; Vt is the total reaction volume, 0.25 ml; Vs is the sample volume, 0.05 ml; t is the reaction time after adding pNPP65 (p-Nitrophenylphosphate), 30 minutes; c is mmol extinction coefficient of pNPP65 (p-Nitrophenylphosphate), 18.6 mM^−1 cm^−1; 1 is the optical path of the cuvette, 1 cm; 1000 is to convert the U/ml to U/l.

[2] = tested on: MG-63 cells; test: as above; settings: 0.02 mg/mL
[3] = tested on: MG-63 cells; test: Cell viability analysis (MTT), cell number of co-cultured MG-63 cells
Protocol: 0.0001 g, 0.0005 g, 0.005 g, and 0.05 g of VK2 was fine weighed and sterilized by UV light in a sterile hood overnight, then added into 50 ml centrifuge tubes. 50 ml of H-DMEM containing 10% FBS was then added to prepare cell culture medium with different VK2 concentrations: 0 mg/mL, 0.002 mg/mL, 0.01 mg/mL, 0.1 mg/mL, and 1 mg/mL. H-DMEM containing 10% FBS was used to adjust the concentration of MG-63 cell solution to 1×10^4 cells/ml. 1 ml/well of cell solution was seeded to a 24-well plate and incubated in an incubator for 1 day to make cells adhere. Then, the culture medium was removed, 1 ml/well of cell culture medium with different VK2 concentration were added respectively and incubated for 1, 3, and 7 days. Cell viability analysis (MTT) and alkaline phosphatase activity assay (ALP) were conducted. Cell morphology was observed by an inverted microscope and recorded in photographs. 0.01 g of 0%, 0.01%, 0.1%, and 1.0% VK2MS was fine weighed and sterilized by UV light in a sterile hood overnight, then added into 50 ml centrifuge tubes. 50 ml of H-DMEM containing 10% FBS was then added to prepare cell culture medium with different VK2 concentrations. H-DMEM containing 10% FBS was used to adjust the concentration of MG-63 cell solution to 1×10^4 cells/ml. 1 ml/well of cell solution was seeded to a 24-well plate and incubated in an incubator for 1 day to make the cells adhere. Then, the culture medium was removed, 1 ml/well of cell culture medium with different VK2 concentration were added respectively and incubated for 1, 3, and 7 days. In addition, the cell culture medium without microspheres (MS) was added 1 ml/well and incubated for 1, 3, and 7 days as control groups. Subsequently, cell viability analyse (MTT) and alkaline phosphatase activity assays (ALP) were conducted. Cell morphology was observed by an inverted microscope and recorded by photographs. First, MTT was prepared as a 5 mg/mL reaction solution by PBS, then filtered by a 0.22 μm filter. 10% MTT reagent was prepared by H-DMEM, and then stored in the dark. After being cultured for 1 day, the cell culture medium was removed from the 24-well cell culture plate. The 24-well cell culture plate was washed twice by PBS. After the PBS was removed, 1 ml/well of 10% MTT reagent was added to the culture plate and reacted in an incubator (37° C., 5% CO2) in the dark for 4-5 hours. Purple crystal particles were produced at the bottom of culture plate after the reaction. The reactive solution was removed and 350 μl/well of DMSO solution was added. After being mixed, […] of dissolved solution was suctioned to a 96-well plate and the absorbance at 570 nm was detected by an ELISA reader. The reference wavelength was set as 650 nm. A cell standard curve can be made to reckon the cell number. The cell solution was adjusted to have a concentration of 5000, 10000, 25000, 50000, 75000, and 100000 cells/ml by H-DMEM containing 10% FBS then seeded into a 24-well plate, respectively. After 1 day, after the cells were adhered, an MTT cell viability analysis was conducted. Absorbance and cell numbers were used to make a standard curve, such that the cell number could be reckoned from the absorbance. A growth curve of MG-63 cells was made first, and then the cell growth rate could be obtained by dividing the cell viability by that of the control group which was detected by the MTT assay. The result shown in FIG. 9A can be obtained by converting the data from ELISA to a cell number according to the cell growth curve. In FIG. 9A, it is observed that the cell number of MG-63 co-cultured with VK2 is apparently lower than that of the control group. Moreover, the effect of cell growth inhibition becomes obvious with the increasing concentration of VK2. […]

vitamin K2 [VK2] was tested. Which “ALP value compared with control group” value ([1]; 0.002 mg/mL of VK2) did it give?
Its value is “higher than that of the control group”.

What about the “ALP activity of a single cell” value ([1]; 0.002 mg/mL of VK2, day 1) of the same substance?
The value was 96.7±1.1 U/L-30 min-10^4 cells.

And the ALP value ([1]; 0.002 mg/mL of VK2, day 1)?
The ALP value was 399.9±3.3 U/L-30 min.

What about the “ALP activity of a single cell” value ([1]; 0.002 mg/mL of VK2, day 3) of the same substance?
The value was 62.4±0.9 U/L-30 min-10^4 cells.

What about the ALP value ([1]; 0.002 mg/mL of VK2, day 3) of the same substance?
The ALP value was 410.7±2.7 U/L-30 min.

What about the ALP value ([1]; 0.002 mg/mL of VK2, day 7) of the same substance?
Its ALP value is 377.4±1.6 U/L-30 min.

What about the “ALP activity of a single cell” value ([1]; 0.01 mg/mL of VK2, day 1) of the same substance?
Its value is 46.4±0.4 U/L-30 min-10^4 cells.

And the ALP value ([1]; 0.01 mg/mL of VK2, day 1)?
Its ALP value is 111.0±0.7 U/L-30 min.

What about the “ALP activity of a single cell” value ([1]; 0.01 mg/mL of VK2, day 3) of the same substance?
Its value is 19.8±0.1 U/L-30 min-10^4 cells.

What about the “ALP activity of a single cell” value ([1]; 0.01 mg/mL of VK2, day 7) of the same substance?
Its value is 8.2±0.0 U/L-30 min-10^4 cells.

What about the ALP value ([1]; 0.1 mg/mL of VK2, day 3) of the same substance?
Its ALP value is 112.2±0.3 U/L-30 min.

And the ALP value ([1]; 0.1 mg/mL of VK2, day 7)?
Its ALP value is 100.6±0.0 U/L-30 min.

What about the “ALP activity of a single cell” value ([1]; 1.0 mg/mL of VK2, day 7) of the same substance?
Its value is 70.4±1.7 U/L-30 min-10^4 cells.

And the “effect on ALP activity of cells” value [2]?
The value was “enhance the ALP activity of cells”.

What about the cell number ([3]; 0.002 mg/mL of VK2, day 1) of the same substance?
The cell number was 4.1±0.1 ×10^4 cells.

What about the cell number ([3]; 0.002 mg/mL of VK2, day 3) of the same substance?
Its cell number is 6.6±0.1 ×10^4 cells.

And the cell number ([3]; 0.002 mg/mL of VK2, day 7)?
The cell number was 14.7±0.1 ×10^4 cells.

What about the cell number ([3]; 1 mg/mL of VK2, day 1) of the same substance?
Its cell number is 2.0±0.0 ×10^4 cells.

And the cell number ([3]; 1 mg/mL of VK2, day 3)?
Its cell number is 5.0±0.1 ×10^4 cells.

What about the cell number ([3]; 1 mg/mL of VK2, day 7) of the same substance?
Its cell number is 2.1±0.1 ×10^4 cells.

And the “effect on cell proliferation” value ([3]; MG-63 co-cultured with VK2, 1, 3, 7 days)?
Its value is “inhibits cell proliferation”.

Reference: patent publication US20140314867A1, “VITAMIN K2 MICROSPHERES” (Medical and Pharmaceutical Industry Technology and …, priority 2013, published 2014)
